pIC50: −log10 of the molar value.
Key:
Type in all cases: cell-based, human
K562 [1] = assay: Genome-wide expression analysis / MetaCore, GSEA; conditions: K562, 6-hour treatment, 500 nM
MV4;11 [2] = assay: Genome-wide expression analysis / MetaCore, GSEA; conditions: MV4;11, 6-hour treatment, 500 nM
MV4;11 [3] = assay: cells; conditions: read-out: IC50, cell proliferation
KASUMI-1 = assay: cells; conditions: read-out: IC50, cell proliferation
OCI-AML3 = assay: cells; conditions: read-out: IC50, cell proliferation
K562 [4] = test system: K562
K562 [5] = test system: K562; remark: listed apart in the source
MV4;11 [6] = test system: MV4;11

| Molecule | effect on gene expression (K562 [1]) | effect on gene expression (MV4;11 [2]) | pIC50 (MV4;11 [3]) | pIC50 (KASUMI-1) | pIC50 (OCI-AML3) | effect on cell proliferation (K562 [4]) | effect on cell cycle (K562 [5]) | effect on cell cycle (MV4;11 [6]) |
| --- | --- | --- | --- | --- | --- | --- | --- | --- |
| CCCOc1ccn2c(C(C)=O)cc(-c3ccccc3S(C)(=O)=O)c2c1 [GSK2801] | no significant effect | no significant effect |  |  |  |  |  |  |
| (+)-JQ1 [reference compound] |  |  | 7.10 | 7.37 | 7.31 | No significant effect | little effect on cell cycle | distinct G1 arrest with reduced S-phase populations |

Source: paper PMC5061470, “Promiscuous targeting of bromodomains by bromosporine identifies BET proteins as master regulators of primary transcription response in leukemia” (Science Advances, 2016)
